What was measured:
patients [1] = details: cited from earlier work
[2] = test system: patients with advanced solid malignancies; experiment: Phase I dose escalation study: safety, dose-limiting toxicity and MTD; format: in vivo, human
Method: This was an open-label nonrandomised dose escalation study, conducted in sequential cohorts of patients from two institutions, Aberdeen Royal Infirmary, Aberdeen, and the Beatson Oncology Centre, Glasgow. It was performed under the auspices of the Cancer Research Campaign, London, with sponsorship by Pharmacia and Upjohn, Milan.
All patients had histologically or cytologically proven advanced solid malignancy that was refractory to conventional therapy. […] All patients gave written informed consent according to local Ethics Committee guidelines.
All doses of the investigational agent are expressed as mg of CPT equivalent. The drug was stored at room temperature. The vials were reconstituted with 10 ml normal saline and the dose to be administered was made up in 100 ml saline in a PVC infusion bag.
Thereafter, dose escalation was to continue according to a modified Fibonacci series. The dose escalation scheme could, however, be modified if considered appropriate based on acquired clinical and pharmacokinetic data. The MTD was defined as the highest dose at which at least three of six patients had dose-limiting toxicity (DLT).
Patients were to be retreated at 28-day intervals for up to six cycles. […] Treatment could be delayed for up to 2 weeks to allow resolution of toxicity.
(§1) During the course of the study patients were reviewed in the clinic every week with toxicity assessment, physical examination, FBC, and serum chemistry. Tumour assessment by imaging was repeated every three cycles. Chest X-ray and ECG were repeated at the end of study.

[3] = test system: advanced solid malignancy
Excerpt: as §1

[4] = test system: colon, stomach, pancreas, ovary, breast, lung, and melanoma xenograft models; details: preclinical studies; cited from earlier work
patients [5] = details: first 3 days of a 28-day cycle; ref Schoemaker et al, 2002; cited from earlier work

Row | Molecule | responses in early clinical trials (patients [1]; colorectal cancer, small bowel carcinoma, and melanoma) | unpredictable and severe toxicity in early clinical trials (patients [1]; ref Gottlieb et al, 1970, Muggia et al, 1972) | patients with grade 2 dysuria and haematuria during cycle 2 ([2]; 200 mg m^−2) | dose recommended for phase II / further clinical study ([2]; 30-min infusion once every 4 weeks, dose as mg equivalent camptothecin) [mg m^−2] | nausea and vomiting grade 1 ([2]; dose levels 30–120 mg m^−2) | antitumour effect in a patient with renal carcinoma ([3]; 60 mg m^−2, patient had progressive disease with brain metastases) | objective antitumour responses ([3]; all dose levels, 23 patients) | activity in xenograft models [4] | antitumour activity (patients [5])
1 | CC[C@@]1(O)C(=O)OCc2c1cc1n(c2=O)Cc2cc3ccccc3nc2-1 [Camptothecin] | responses to CPT were observed | myelosuppression, gastrointestinal toxicity, and haemorrhagic cystitis |  |  |  |  |  |  | 
2 | copolymer of N-(hydroxypropyl) methacrylamide, (20-O-(N-methacryloyl-glycyl-aminohexanoyl-glycyl)) camptothecin and N-(2-hydroxypropyl) methacryloyl glycinamide [MAG-CPT] |  |  | one of the eight patients | 200 | observed sporadically | regression of cutaneous metastases was observed | No objective antitumour responses were seen | active | no evidence of antitumour activity
